According to US12491251B2, “Degraders of cyclin-dependent kinase 7 (CDK7) and uses thereof” (DANA-FARBER CANCER INSTITUTE, INC., priority 2019, dated 2025):

Biological target: T1, CDK7 (Homo sapiens, UniProt P50613)
T1 construct: endogenous in cells; host or cells: Jurkat cells
Test: CDK7 degradation in Jurkat cells by immunoblot
Format: cell-based
Conditions: 1 μM compound, 6 hours, vs DMSO
Procedure: Jurkat cells were treated with DMSO or 1 μM of compounds 1-26 for 6 hours. Cells were then lysed in radioimmunoprecipitation assay (RIPA) buffer (Sigma® Life Science) containing protease/phosphatase inhibitor cocktail (Roche). The protein concentrations were measured by bicinchoninic acid assay (BCA) analysis (Pierce™). Equal amounts of protein were resolved by 4-12% Tris-Base gels (Invitrogen™), and then transferred to the immunoblot polyvinylidene difluoride (PVDF) membrane (BioRad), and immunoblotted with primary antibodies against CDK7 (cell signaling) and glyceraldehyde 3-phosphate dehydrogenase (GAPDH) (Cell Signaling Technology®), and then immunoblotted with IRDye®800-labeled goat anti-rabbit immunoglobulin G (IgG) and IRDye®680-labeled goat anti-mouse IgG (LI-COR®) secondary antibodies. The membranes were detected on an Odyssey® CLx system.

T1 sequence (P50613 2-346 limits assumed): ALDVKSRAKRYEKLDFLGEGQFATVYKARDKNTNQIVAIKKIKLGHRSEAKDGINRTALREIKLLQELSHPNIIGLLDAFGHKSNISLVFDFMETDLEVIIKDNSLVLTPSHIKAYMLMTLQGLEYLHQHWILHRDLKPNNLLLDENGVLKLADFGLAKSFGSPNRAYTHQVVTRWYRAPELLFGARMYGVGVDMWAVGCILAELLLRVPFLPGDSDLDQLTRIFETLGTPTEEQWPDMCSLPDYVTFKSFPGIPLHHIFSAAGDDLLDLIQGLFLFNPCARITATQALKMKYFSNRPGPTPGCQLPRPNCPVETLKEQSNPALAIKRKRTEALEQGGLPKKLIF
T1 sequence (P51946 whole entry partner): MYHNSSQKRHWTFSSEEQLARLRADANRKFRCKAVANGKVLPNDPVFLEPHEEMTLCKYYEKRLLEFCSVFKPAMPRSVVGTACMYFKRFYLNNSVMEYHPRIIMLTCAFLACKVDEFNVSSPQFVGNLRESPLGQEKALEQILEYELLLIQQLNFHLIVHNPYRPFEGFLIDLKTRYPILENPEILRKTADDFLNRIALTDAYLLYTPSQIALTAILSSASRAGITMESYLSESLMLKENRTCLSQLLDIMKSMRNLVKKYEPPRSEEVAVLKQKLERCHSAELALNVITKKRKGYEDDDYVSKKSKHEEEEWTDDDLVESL
T1 sequence (P51948 whole entry partner): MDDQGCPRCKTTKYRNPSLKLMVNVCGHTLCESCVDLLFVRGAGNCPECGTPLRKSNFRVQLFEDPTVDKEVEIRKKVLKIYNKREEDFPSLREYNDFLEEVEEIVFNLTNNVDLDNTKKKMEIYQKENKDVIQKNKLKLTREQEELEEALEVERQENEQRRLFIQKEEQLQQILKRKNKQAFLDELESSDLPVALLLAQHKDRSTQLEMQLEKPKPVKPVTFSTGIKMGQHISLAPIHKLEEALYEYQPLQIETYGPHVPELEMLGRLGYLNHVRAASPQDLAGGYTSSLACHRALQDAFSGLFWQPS

Structure (SMILES) | degradation of CDK7 (immunoblot)
CN(C)C[C@@H](NC(=O)N1Cc2c(NC(=O)c3ccc(C(=O)NCCOCCOCCOCCNc4cccc5c4C(=O)N(C4CCC(=O)NC4=O)C5=O)cc3)n[nH]c2C1(C)C)c1ccccc1 (stereo partly drawn) [Compound 1, N1-(5-(((S)-2-(dimethylamino)-1-phenylethyl)carbamoyl)-6,6-dimethyl-1,4,5,6-tetrahydropyrrolo[3,4-c]pyrazol-3-yl)-N4-(2-(2-(2-(2-((2-(2,6-dioxopiperidin-3-yl)-1,3-dioxoisoindolin-4-yl)amino)ethoxy)ethoxy)ethoxy)ethyl)terephthalamide] | induced the degradation of CDK7
Cc1ncsc1-c1ccc([C@H](C)NC(=O)[C@@H]2C[C@@H](O)CN2C(=O)[C@@H](NC(=O)CCOCCOCCNC(=O)c2ccc(C(=O)Nc3n[nH]c4c3CN(C(=O)N[C@H](CN(C)C)c3ccccc3)C4(C)C)cc2)C(C)(C)C)cc1 [Compound 6] | induced the degradation of CDK7
CN(C)C[C@@H](NC(=O)N1Cc2c(NC(=O)c3ccc(C(=O)NCCCCC#Cc4cccc5c4C(=O)N(C4CCC(=O)NC4=O)C5=O)cc3)n[nH]c2C1(C)C)c1ccccc1 (stereo partly drawn) [Compound 7, N^1-(5-(((S)-2-(dimethylamino)-1-phenylethyl)carbamoyl)-6,6-dimethyl-1,4,5,6-tetrahydropyrrolo[3,4-c]pyrazol-3-yl)-N^4-(6-(2-(2,6-dioxopiperidin-3-yl)-1,3-dioxoisoindolin-4-yl)hex-5-yn-1-yl)terephthalamide] | induced the degradation of CDK7
CN(C)C[C@@H](NC(=O)N1Cc2c(NC(=O)c3ccc(C(=O)NCCCCCOc4cccc5c4C(=O)N(C4CCC(=O)NC4=O)C5=O)cc3)n[nH]c2C1(C)C)c1ccccc1 (stereo partly drawn) [Compound 8, N^1-(5-(((S)-2-(dimethylamino)-1-phenylethyl)carbamoyl)-6,6-dimethyl-1,4,5,6-tetrahydropyrrolo[3,4-c]pyrazol-3-yl)-N^4-(5-((2-(2,6-dioxopiperidin-3-yl)-1,3-dioxoisoindolin-4-yl)oxy)pentyl)terephthalamide] | induced the degradation of CDK7
CN(C)C[C@@H](NC(=O)N1Cc2c(NC(=O)c3ccc(C(=O)NCCCCCCCCOc4cccc5c4C(=O)N(C4CCC(=O)NC4=O)C5=O)cc3)n[nH]c2C1(C)C)c1ccccc1 (stereo partly drawn) [Compound 9, N^1-(5-(((S)-2-(dimethylamino)-1-phenylethyl)carbamoyl)-6,6-dimethyl-1,4,5,6-tetrahydropyrrolo[3,4-c]pyrazol-3-yl)-N^4-(8-((2-(2,6-dioxopiperidin-3-yl)-1,3-dioxoisoindolin-4-yl)oxy)octyl)terephthalamide] | induced the degradation of CDK7
CN(C)C[C@@H](NC(=O)N1Cc2c(NC(=O)c3ccc(NC(=O)CCCCCCCCCCOc4cccc5c4C(=O)N(C4CCC(=O)NC4=O)C5=O)cc3)n[nH]c2C1(C)C)c1ccccc1 (stereo partly drawn) [Compound 10, N—((S)-2-(dimethylamino)-1-phenylethyl)-3-(4-(11-((2-(2,6-dioxopiperidin-3-yl)-1,3-dioxoisoindolin-4-yl)oxy)undecanamido)benzamido)-6,6-dimethyl-4,6-dihydropyrrolo[3,4-c]pyrazole-5(1H)-carboxamide] | induced the degradation of CDK7
Cc1ncsc1-c1ccc([C@H](C)NC(=O)[C@@H]2C[C@@H](O)CN2C(=O)[C@@H](NC(=O)CCCCCNC(=O)c2ccc(C(=O)Nc3n[nH]c4c3CN(C(=O)N[C@H](CN(C)C)c3ccccc3)C4(C)C)cc2)C(C)(C)C)cc1 [Compound 12, N^1-(5-(((S)-2-(dimethylamino)-1-phenylethyl)carbamoyl)-6,6-dimethyl-1,4,5,6-tetrahydropyrrolo[3,4-c]pyrazol-3-yl)-N^4-(6-(((S)-1-((2S,4R)-4-hydroxy-2-(((S)-1-(4-(4-methylthiazol-5-yl)phenyl)ethyl)carbamoyl)pyrrolidin-1-yl)-3,3-dimethyl-1-oxobutan-2-yl)amino)-6-oxohexyl)terephthalamide] | induced the degradation of CDK7
CN(C)C[C@@H](NC(=O)N1Cc2c(NC(=O)c3ccc(C(=O)NCCCCCCc4cccc5c4C(=O)N(C4CCC(=O)NC4=O)C5=O)cc3)n[nH]c2C1(C)C)c1ccccc1 (stereo partly drawn) [Compound 13, N^1-(5-(((S)-2-(dimethylamino)-1-phenylethyl)carbamoyl)-6,6-dimethyl-1,4,5,6-tetrahydropyrrolo[3,4-c]pyrazol-3-yl)-N^4-(6-(2-(2,6-dioxopiperidin-3-yl)-1,3-dioxoisoindolin-4-yl)hexyl)terephthalamide] | induced the degradation of CDK7
Cc1ncsc1-c1ccc([C@H](C)NC(=O)[C@@H]2C[C@@H](O)CN2C(=O)[C@@H](NC(=O)CCOCCNC(=O)c2ccc(C(=O)Nc3n[nH]c4c3CN(C(=O)N[C@H](CN(C)C)c3ccccc3)C4(C)C)cc2)C(C)(C)C)cc1 [Compound 15, N^1-(5-(((S)-2-(dimethylamino)-1-phenylethyl)carbamoyl)-6,6-dimethyl-1,4,5,6-tetrahydropyrrolo[3,4-c]pyrazol-3-yl)-N^4-(2-(3-(((S)-1-((2S,4R)-4-hydroxy-2-(((S)-1-(4-(4-methylthiazol-5-yl)phenyl)ethyl)carbamoyl)pyrrolidin-1-yl)-3,3-dimethyl-1-oxobutan-2-yl)amino)-3-oxopropoxy)ethyl)terephthalamide] | induced the degradation of CDK7
CN(C)C[C@@H](NC(=O)N1Cc2c(NC(=O)c3ccc(NC(=O)CCCNc4cccc5c4C(=O)N(C4CCC(=O)NC4=O)C5=O)cc3)n[nH]c2C1(C)C)c1ccccc1 (stereo partly drawn) [Compound 16, N—((S)-2-(dimethylamino)-1-phenylethyl)-3-(4-(4-((2-(2,6-dioxopiperidin-3-yl)-1,3-dioxoisoindolin-4-yl)amino)butanamido)benzamido)-6,6-dimethyl-4,6-dihydropyrrolo[3,4-c]pyrazole-5(1H)-carboxamide] | induced the degradation of CDK7

Second part, the compound after the results:

degradation of CDK7 (immunoblot) | Structure (SMILES)
induced the degradation of CDK7 | CN(C)C[C@@H](NC(=O)N1Cc2c(NC(=O)c3ccc(C(=O)NCCCCCNc4ccc5c(c4)C(=O)N(C4CCC(=O)NC4=O)C5=O)cc3)n[nH]c2C1(C)C)c1ccccc1 (stereo partly drawn) [Compound 21, N^1-(5-(((S)-2-(dimethylamino)-1-phenylethyl)carbamoyl)-6,6-dimethyl-1,4,5,6-tetrahydropyrrolo[3,4-c]pyrazol-3-yl)-N^4-(5-((2-(2,6-dioxopiperidin-3-yl)-1,3-dioxoisoindolin-5-yl)amino)pentyl)terephthalamide]
induced the degradation of CDK7 | Cc1ncsc1-c1ccc([C@H](C)NC(=O)[C@@H]2C[C@@H](O)CN2C(=O)[C@@H](NC(=O)CCCCCCNC(=O)c2ccc(C(=O)Nc3n[nH]c4c3CN(C(=O)N[C@H](CN(C)C)c3ccccc3)C4(C)C)cc2)C(C)(C)C)cc1 [Compound 22, N^1-(5-(((S)-2-(dimethylamino)-1-phenylethyl)carbamoyl)-6,6-dimethyl-1,4,5,6-tetrahydropyrrolo[3,4-c]pyrazol-3-yl)-N^4-(7-(((S)-1-((2S,4R)-4-hydroxy-2-(((S)-1-(4-(4-methylthiazol-5-yl)phenyl)ethyl)carbamoyl)pyrrolidin-1-yl)-3,3-dimethyl-1-oxobutan-2-yl)amino)-7-oxoheptyl)terephthalamide]
induced the degradation of CDK7 | Cc1ncsc1-c1ccc([C@H](C)NC(=O)[C@@H]2C[C@@H](O)CN2C(=O)[C@@H](NC(=O)CCCCCCCNC(=O)c2ccc(C(=O)Nc3n[nH]c4c3CN(C(=O)N[C@H](CN(C)C)c3ccccc3)C4(C)C)cc2)C(C)(C)C)cc1 [Compound 23, N^1-(5-(((S)-2-(dimethylamino)-1-phenylethyl)carbamoyl)-6,6-dimethyl-1,4,5,6-tetrahydropyrrolo[3,4-c]pyrazol-3-yl)-N^4-(8-(((S)-1-((2S,4R)-4-hydroxy-2-(((S)-1-(4-(4-methylthiazol-5-yl)phenyl)ethyl)carbamoyl)pyrrolidin-1-yl)-3,3-dimethyl-1-oxobutan-2-yl)amino)-8-oxooctyl)terephthalamide]
induced the degradation of CDK7 | Cc1ncsc1-c1ccc([C@H](C)NC(=O)[C@@H]2C[C@@H](O)CN2C(=O)[C@@H](NC(=O)CCOCCOCCOCCNC(=O)c2ccc(C(=O)Nc3n[nH]c4c3CN(C(=O)N[C@H](CN(C)C)c3ccccc3)C4(C)C)cc2)C(C)(C)C)cc1 [Compound 25, N^1-(5-(((S)-2-(dimethylamino)-1-phenylethyl)carbamoyl)-6,6-dimethyl-1,4,5,6-tetrahydropyrrolo[3,4-c]pyrazol-3-yl)-N^4—((S)-14-((2S,4R)-4-hydroxy-2-(((S)-1-(4-(4-methylthiazol-5-yl)phenyl)ethyl)carbamoyl)pyrrolidine-1-carbonyl)-15,15-dimethyl-12-oxo-3,6,9-trioxa-13-azahexadecyl)terephthalamide]
induced the degradation of CDK7 | CN(C)C[C@@H](NC(=O)N1Cc2c(NC(=O)c3ccc(C(=O)NCCOCCOCCNc4cccc5c4C(=O)N(C4CCC(=O)NC4=O)C5=O)cc3)n[nH]c2C1(C)C)c1ccccc1 (stereo partly drawn) [Compound 26, N^1-(5-(((S)-2-(dimethylamino)-1-phenylethyl)carbamoyl)-6,6-dimethyl-1,4,5,6-tetrahydropyrrolo[3,4-c]pyrazol-3-yl)-N^4-(2-(2-(2-((2-(2,6-dioxopiperidin-3-yl)-1,3-dioxoisoindolin-4-yl)amino)ethoxy)ethoxy)ethyl)terephthalamide]
